From the supplement of paper PMC13380429

Experiments:
Conditions in all cases: 72 h
[1] = tested on: Caco-2; assay: cell viability relative to DMSO; higher = less toxic
[2] = tested on: Calu-3; assay: as above
[3] = tested on: HepG2; assay: as above
[4] = tested on: U2OS; assay: as above
[5] = tested on: Vero E6; assay: as above
[6] = tested on: HepG2; assay: relative viability EC50 (midpoint between 100% and the lowest measured viability); higher = less toxic
[7] = tested on: U2OS; assay: as above
[8] = tested on: Vero E6; assay: as above
[9] = tested on: Caco-2; assay: drug sensitivity score (DSS) for viability; higher = more toxic; extreme values may be limits of the assay
[10] = tested on: Calu-3; assay: as above
[11] = tested on: HepG2; assay: as above
[12] = tested on: U2OS; assay: as above
[13] = tested on: Vero E6; assay: as above
[14] = tested on: Caco-2; assay: relative viability EC50 (midpoint between 100% and the lowest measured viability); higher = less toxic

SMILES | cell viability ([1]; 1 nM) [%] | cell viability ([1]; 10 nM) [%] | cell viability ([1]; 100 nM) [%] | cell viability ([1]; 1000 nM) [%] | cell viability ([1]; 10000 nM) [%] | cell viability ([2]; 1 nM) [%] | cell viability ([2]; 10 nM) [%] | cell viability ([2]; 100 nM) [%] | cell viability ([2]; 1000 nM) [%] | cell viability ([2]; 10000 nM) [%] | cell viability ([3]; 1 nM) [%] | cell viability ([3]; 10 nM) [%] | cell viability ([3]; 100 nM) [%] | cell viability ([3]; 1000 nM) [%] | cell viability ([3]; 10000 nM) [%] | cell viability ([4]; 1 nM) [%] | cell viability ([4]; 10 nM) [%] | cell viability ([4]; 100 nM) [%] | cell viability ([4]; 1000 nM) [%] | cell viability ([4]; 10000 nM) [%] | cell viability ([5]; 1 nM) [%] | cell viability ([5]; 10 nM) [%] | cell viability ([5]; 100 nM) [%] | cell viability ([5]; 1000 nM) [%] | cell viability ([5]; 10000 nM) [%] | relative viability EC50 [6] [µM] | relative viability EC50 [7] [µM] | relative viability EC50 [8] [µM] | drug sensitivity score [9] | drug sensitivity score [10] | drug sensitivity score [11] | drug sensitivity score [12] | drug sensitivity score [13] | relative viability EC50 [14] [µM]
COC(=O)Nc1nc2cc(C(=O)c3ccccc3)ccc2[nH]1 [mebendazole] | 91.6 | 104 | 88.4 | 67.2 | 55.6 | 81.1 | 107 | 95 | 84.6 | 61.3 | 97.5 | 109 | 102 | 44.3 | 40.9 | 95.5 | 102 | 95.5 | 66 | 41.2 | 111 | 97.6 | 102 | 84.7 | 35.6 | 0.387 | 0.774 | 1.59 | 7 | 3.4 | 10.1 | 7.3 | 5.9 | –
COc1cc(NC(=O)Nc2cccc(CNC(=O)O[C@H]3CCOC3)c2)ccc1-c1cnco1 [merimepodib] | – | – | – | – | – | – | – | – | – | – | – | – | – | – | – | – | – | – | – | – | – | – | – | – | – | – | – | – | – | 3.6 | 4.3 | 3.7 | 0 | –
COC(=O)Nc1nc2cc(SC(C)C)ccc2[nH]1 [methiazole] | 104 | 100 | 99.1 | 86.8 | 49 | 95.5 | 97 | 103 | 81.6 | 64.6 | 95 | 105 | 95.7 | 83.4 | 35 | 101 | 97.6 | 99.9 | 86.4 | 41.1 | 91.9 | 103 | 92.6 | 86.6 | 47.5 | 1.53 | 1.62 | 1.61 | 4.8 | 4 | 6.1 | 5.4 | 4.7 | 1.52
CN(C)C(=O)Oc1cccc([N+](C)(C)C)c1 [neostigmine] | 97.2 | 91.9 | 100 | 93.7 | 99.2 | – | – | – | – | – | – | – | – | – | – | 97.8 | 95.7 | 102 | 97.9 | 100 | 91.1 | 93.1 | 90.6 | 94.8 | 112 | – | > 10 | > 10 | 0 | – | – | 0 | 0 | > 10
CCOc1ccc(C(=O)OCCN(CC)CC)cc1 [parethoxycaine] | 97.1 | 85.1 | 95.6 | 93.7 | 104 | – | – | – | – | – | 98.6 | 116 | 106 | 108 | 102 | 101 | 92.8 | 103 | 98.1 | 98.8 | 94.6 | 95.6 | 92.3 | 97.5 | 111 | > 10 | > 10 | > 10 | 0 | – | 0 | 0 | 0 | > 10
C=C(C)[C@@H]1CC=C(CO)CC1 [perillyl-alcohol] | 99 | 99.6 | 102 | 102 | 98.6 | – | – | – | – | – | 101 | 93.2 | 108 | 94.5 | 92.9 | 105 | 98.2 | 98.8 | 95.6 | 98.5 | 98 | 102 | 98 | 95.5 | 96 | > 10 | > 10 | > 10 | 0 | – | 0 | 0 | 0 | > 10
Nc1ccc(C(=O)Oc2ccccc2)c(O)c1 [phenyl-aminosalicylate] | – | – | – | – | – | – | – | – | – | – | – | – | – | – | – | – | – | – | – | – | – | – | – | – | – | – | – | – | – | 0 | 1 | 0 | 0 | –
CCCc1cc(=O)[nH]c(=S)[nH]1 [propylthiouracil] | – | – | – | – | – | – | – | – | – | – | – | – | – | – | – | – | – | – | – | – | – | – | – | – | – | – | – | – | – | 0 | – | 0 | 0 | –
CN(N=O)C(=O)N[C@@H](C=O)[C@@H](O)[C@H](O)[C@H](O)CO [streptozotocin] | 106 | 82.3 | 79.9 | 85.2 | 96.2 | – | – | – | – | – | 98.3 | 90.7 | 104 | 101 | 101 | 106 | 97.5 | 100 | 102 | 103 | 98.5 | 98.1 | 98.4 | 96.7 | 92.6 | > 10 | > 10 | > 10 | 1 | – | 0 | 0 | 0 | > 10
COC[C@H]1OC(=O)c2coc3c2[C@@]1(C)C1=C(C3=O)[C@@H]2CCC(=O)[C@@]2(C)C[C@H]1OC(C)=O [wortmannin] | 102 | 99.3 | 88.2 | 58.3 | 40.8 | 93.8 | 90.6 | 82.7 | 69.5 | 51.4 | 98.4 | 97.4 | 98.2 | 98.2 | 86.7 | 95.1 | 99.3 | 94.1 | 91.1 | 65.1 | 106 | 103 | 97.3 | 88.9 | 76.8 | > 10 | – | > 10 | 9.1 | 7.9 | 0.3 | 2.8 | 1.7 | 0.409
